Reference: patent EP3315495A1, “N,N' -[…], N,N' -DIAR[…] N,N' -DIARY[…] FOR USE IN TREATMENT AND PREVENTION OF INFLAMMATORY DISEASE” (Universität Innsbruck, priority 2016, dated 2018)
Entries after “also recorded” stand apart in the source; their conditions may differ. Marks after values point to notes of the source that are not given here.

Tests used:
[1] = tested on: 5-LOX product formation in PMNL; assay: 5-LOX product formation in PMNL stimulated with A23187 (cell-based); parameters: species or system human; details: for Effect on 5-LOX product formation in PMNL: result in words; for inhibition at 1 µM: read-out: Effect on 5-LOX product formation in PMNL, % inhibition
Procedure: Briefly, first a cell-based assay allows to determine the inhibition of the 5-LOX product biosynthesis. The cell suspension contained human neutrophils (PMNL) or monocytes, wherein the cells were isolated from buffy coats obtained from healthy donors pooled by gender. An aliquot cell suspension was incubated with the candidate compound for 15 min at 37 °C. The cells are treated with calcium ionophore A23187 to stimulate 5-LOX product formation for further 10 min (37 °C), optionally in presence of various concentrations of AA. The reaction was stopped with 1 mL methanol on ice.
In both assays, product quantification was conducted with RP-HPLC and UV detection after solid phase extraction and addition of 200 ng prostaglandin B1 as internal standard.

[2] = molecular target: T1, FLAP (Homo sapiens, UniProt P20292); details: active = inhibition of product formation in cells without 5-LOX activity in the cell-free assay
T1 sequence (P20292 1-161): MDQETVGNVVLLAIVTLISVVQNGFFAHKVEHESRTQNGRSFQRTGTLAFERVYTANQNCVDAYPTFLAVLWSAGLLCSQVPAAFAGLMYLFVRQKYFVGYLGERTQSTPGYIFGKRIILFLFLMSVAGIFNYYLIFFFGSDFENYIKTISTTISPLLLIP
Procedure: The enzyme was preincubated for 15 min with the potential inhibitor on ice and subsequently exposed to 2 mM CaCl2 and 20 µM AA for 10 min at 37°C.
Effect on 5-LOX product formation and sEH activity is determined as described above. In case of observed effect on 5-LOX product formation in the cellular assay, 5-LOX activity was investigated with isolated 5-LOX.

[3] = molecular target: T2, sEH (Homo sapiens, UniProt P34913); details: result in words
T2 sequence (P34913 1-555): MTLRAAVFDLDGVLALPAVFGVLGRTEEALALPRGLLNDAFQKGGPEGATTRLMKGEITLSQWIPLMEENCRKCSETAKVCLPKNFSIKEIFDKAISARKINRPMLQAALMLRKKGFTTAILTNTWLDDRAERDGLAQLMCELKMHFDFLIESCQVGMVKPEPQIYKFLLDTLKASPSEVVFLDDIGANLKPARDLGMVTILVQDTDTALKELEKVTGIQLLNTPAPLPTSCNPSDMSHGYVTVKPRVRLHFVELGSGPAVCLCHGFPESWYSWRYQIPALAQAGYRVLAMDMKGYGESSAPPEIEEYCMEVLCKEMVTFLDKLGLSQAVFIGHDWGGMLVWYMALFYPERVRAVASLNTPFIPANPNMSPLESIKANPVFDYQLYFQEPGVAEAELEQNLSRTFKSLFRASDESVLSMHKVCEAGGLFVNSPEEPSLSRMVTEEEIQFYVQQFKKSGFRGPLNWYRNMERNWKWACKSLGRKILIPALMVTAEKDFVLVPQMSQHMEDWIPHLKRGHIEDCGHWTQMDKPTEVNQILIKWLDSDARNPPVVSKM
Procedure: (§1) In brief, sEH was expressed in transfected Sf9-cells. Isolation of sEH from the cell pellet was conducted with a benzylthiosepharose matrix. […] The reaction was stopped with ZnSO4 (0.2 M) after 60 min incubation. […] Inhibitors were tested for self fluorescence. Positive controls were AUDA (12-(3-adamantan-1-yl-ureido)dodecanacid) and DCU (N,N'-dicyclohexylurea) at 10 µM.

[4] = molecular target: T2, sEH; assay: biochemical; details: for inhibition at 0.1 µM / inhibition at 1 µM: read-out: Effect on sEH activity, % inhibition
Procedure: as §1

[5] = tested on: leukotriene mediated peritonitis; assay: Zymosan-induced peritonitis model in mice; assay type: in vivo, CD1 male mice; details: intraperitoneal, 30 min prior to zymosan
Procedure: Compound I-12 was evaluated in vivo in a peritonitis model in mice. The experimental protocols were approved by the Animal Care Committee of the University of Naples Federico II, in compliance with Italian regulations on protection of animals used for experimental and other scientific purpose (Ministerial Decree 116/92) as well as with the European Economic Community regulations (Official Journal of E.C. L 358/1 12/18/1986); protocol number: 2014/0018760 27th February 2014. CD1 male mice with an age of six to eight weeks were investigated. The leukotriene mediated peritonitis is induced by injection of 1 mg zymosan in 50 µl saline solution. 30 min prior to induction, the candidate compound was applied as intraperitoneal injection in different concentrations as well as DMSO as negative control and positive controls (MK886, zileuton). Results are given in Table 3, wherein […] and LTB 4 levels are measured as well as vascular permeability (VP) and the cell recruitment in the peritoneal cavity (Cell Rec). Table 3: Results from an in vivo study with a mouse peritonitis model
In Table 3, values in percent indicate the percent inhibition in respect to the vehicle control. Statistical significance is determined via ANOVA Bonferroni, wherein * indicates p<0.05; ** indicates p<0.01; *** indicates p<0.001 vs. vehicle. N indicates the number of investigated mice.

Structure (SMILES)	Effect on 5-LOX product formation in PMNL [1]	Effect on FLAP activity [2]	Effect on sEH activity [3]	inhibition at 0.1 µM [4]	other results
CCn1c(COc2ccc3ccccc3c2)nc2ccccc21 [Compound I12-1, reference compound]	inactive	inactive	inactive		
Cc1cc(OCc2nc3ccccc3s2)ccc1NC(=O)NC1CCCCC1 [Compound I12-2, N-[4-(2-benzothiazolylmethoxy)-2-methylphenyl]-N'-cyclohexyl-urea, reference compound]	did not show an effect; also recorded: inactive	did not show an effect; also recorded: inactive		75%	
Cc1cccc(NC(=O)Nc2ccc(OCc3nc4ccccc4s3)cc2C)c1 [Compound I12-3]		active		55%	inhibition at 1 µM ([1]; Homo sapiens, PMNL): 100%
Cc1cc(OCc2nc3ccccc3s2)ccc1NC(=O)Nc1cccc2ccccc12 [Compound I12-4]		active	inactive		inhibition at 1 µM ([1]; Homo sapiens, PMNL): 70%
Cc1cc(OCc2nc3ccccc3s2)ccc1NC(=O)c1cccc(F)c1 [Compound I12-5, reference compound]	inactive	inactive	inactive		
Cc1cc(OCc2nc3ccccc3s2)ccc1NC(=O)COc1ccc(Cl)cc1Cl [Compound I12-6, reference compound]	inactive	inactive	inactive		
CCNC(=O)Nc1ccc(OCc2nc3ccccc3s2)cc1C [Compound I12-7, reference compound]	inactive	inactive	inactive		
COc1cc(/C=N/NC(=O)c2ccc(CSc3nc4ccccc4s3)o2)cc(Br)c1O [Compound I12-8, reference compound]	inactive	inactive		30%	
CSc1ccc(N/N=C/c2nc3ccccc3s2)cc1 [Compound I12-9, reference compound]	inactive	inactive	inactive		
CC(C)c1ccc(OCc2nc3ccccc3[nH]2)cc1 [Compound I12-10, reference compound]	inactive	inactive	inactive		
Cc1cccc(OCC(=O)Nc2ccc(OCc3nc4ccccc4s3)cc2C)c1 [Compound I12-11, reference compound]		active	did not show sEH inhibition; also recorded: inactive		inhibition at 1 µM ([1]; Homo sapiens, PMNL): 97%
Cc1cc(OCc2nc3ccccc3s2)ccc1NC(=O)c1ccc(Cl)cc1 [Compound I12-12, reference compound]	inactive	inactive	inactive		
Cc1cccc(OCc2nc3ccccc3s2)c1C [Compound I12-13, reference compound]	inactive	inactive	inactive		
COc1cccc(NC(=O)Nc2ccc(CCc3nc4ccccc4[nH]3)cc2)c1 [Compound L1]	inactive	inactive		30%	
O=C(Nc1ccc(CCc2nc3ccccc3[nH]2)cc1)Nc1cccc(Cl)c1 [Compound L2]	inactive	inactive		50%	
O=C(Nc1ccccc1)Nc1ccc(CCc2nc3ccccc3[nH]2)cc1 [Compound L3]	inactive	inactive		30%	
O=C(Nc1ccc(Cl)cc1)Nc1ccc(CCc2nc3ccccc3[nH]2)cc1 [Compound L4]	inactive	inactive		78%	
COc1ccc(NC(=O)Nc2ccc(CCc3nc4ccccc4[nH]3)cc2)cc1 [Compound L5]	inactive	inactive		50%	
O=C(Nc1ccc(F)cc1)Nc1ccc(CCc2nc3ccccc3[nH]2)cc1 [Compound L6]	inactive	inactive		55%	
Cn1c(CCc2ccc(NC(=O)Nc3cccc(Cl)c3)cc2)nc2ccccc21 [Compound L8]	inactive	inactive		65%	
Cc1cc(OCc2nc3ccccc3[nH]2)ccc1NC(=O)Nc1ccc(Cl)c(Cl)c1 [EZ14, N-[4-(1H-Benzimidazol-2-ylmethoxy)-2-methylphenyl]-N'-(3,4-dichlorophenyl)-urea]					IC50 [4]: 55 nM; IC50 ([1]; Homo sapiens, PMNL, read-out: Effect on 5-LOX product formation in PMNL, IC50): 770 nM
CC(C)c1ccc2c(c1)c(SC(C)(C)C)c(CC(C)(C)C(=O)O)n2Cc1ccc(Cl)cc1 [MK886, reference compound]					Cell Rec (cell recruitment in the peritoneal cavity) ([5]; 1 mg): 4.54±0.326 10^6/ml; Cell Rec, percent inhibition in respect to the vehicle control ([5]; 1 mg): 41%***; LTB4 ([5]; 1 mg): 258 ± 48 pg/mL; LTB4, percent inhibition in respect to the vehicle control ([5]; 1 mg): 63%**; LTC4 ([5]; 1 mg): 24.2 ± 2.98 ng/mL; LTC4, percent inhibition in respect to the vehicle control ([5]; 1 mg): 73%***; VP (vascular permeability) ([5]; 3 mg): 0.303±0.018 abs 610 nm; VP, percent inhibition in respect to the vehicle control ([5]; 3 mg): 51%
Cc1cc(OCc2nc3ccccc3o2)ccc1NC(=O)Nc1ccc(Cl)c(Cl)c1 [SE04, N-[4-(2-Benzoxazolylmethoxy)-2-methylphenyl]-N'-(3,4-dichlorophenyl)-urea]					inhibition at 1 µM [4]: ~87%; inhibition at 1 µM ([1]; Homo sapiens, PMNL): ~85%
O=C(Nc1ccc(OCc2nc3ccccc3o2)cc1)Nc1ccc(Cl)c(Cl)c1 [TS04]	inactive	inactive			inhibition at 1 µM [4]: ~96%
CC(c1cc2ccccc2s1)N(O)C(N)=O (stereo not drawn) [ZIL, zileuton, reference compound]					LTC4 ([5]; 10 mg): 56.5 ± 4.58 ng/mL; LTC4, percent inhibition in respect to the vehicle control ([5]; 10 mg): 36%*; VP (vascular permeability) ([5]; 10 mg): 0.639±0.104 abs 610 nm
